Experimental data taken from patent publication US7138361B2, “Herbicidal heterocycles” (E. I. du Pont de Nemours and Company, priority 2000, dated 2006).

Columns and labels:
Assay type in all cases: in vivo
Sunflower [1] = assay: Test C preemergence; details: Rate 250 g/ha, visual evaluation after 12 to 14 days
soybean (Glycine max) = assay: Test C preemergence; details: for Plant response rating (0 to 100), Soybean: Rate 250 g/ha, visual evaluation after 12 to 14 days
How it was run: (§1)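 Visual 0–100 rating vs controls (0 = no effect, 100 = complete control) at 12–14 d, greenhouse. Compounds in non-phytotoxic solvent + surfactant; pre: sprayed after seeding; post: 1–4-leaf plants, 2–18 cm.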

[2] = system: pigweed (Amaranthus retroflexus); assay: Test C preemergence; details: for Plant response rating (0 to 100), Pigweed: Rate 250 g/ha, visual evaluation after 12 to 14 days
How it was run: as §1

[3] = system: lambsquarters (Chenopodium album); assay: Test C preemergence; details: for Plant response rating (0 to 100), Lambsquarters: Rate 250 g/ha, visual evaluation after 12 to 14 days
How it was run: as §1

Nightshade = assay: Test C preemergence
[4] = system: giant foxtail (Setaria faberii); assay: Test C preemergence; details: for Plant response rating (0 to 100), Foxtail, Giant: Rate 250 g/ha, visual evaluation after 12 to 14 days
How it was run: as §1

[5] = system: johnsongrass (Sorghum halepense); assay: Test C preemergence; details: for Plant response rating (0 to 100), Johnsongrass: Rate 250 g/ha, visual evaluation after 12 to 14 days
How it was run: as §1

corn (Zea mays) = assay: Test C preemergence; details: for Plant response rating (0 to 100), Corn: Rate 250 g/ha, visual evaluation after 12 to 14 days
How it was run: as §1

kochia (Kochia scoparia) = assay: Test C preemergence; details: for Plant response rating (0 to 100), Kochia: Rate 250 g/ha, visual evaluation after 12 to 14 days
How it was run: as §1

[6] = system: common ragweed (Ambrosia elatior); assay: Test C preemergence; details: for Plant response rating (0 to 100), Ragweed, Common: Rate 250 g/ha, visual evaluation after 12 to 14 days
How it was run: as §1

[7] = system: bermudagrass (Cynodon dactylon); assay: Test C preemergence; details: for Plant response rating (0 to 100 where 0 is no effect and 100 is complete control), Bermudagrass: Rate 250 g/ha, visual evaluation after 12 to 14 days
How it was run: as §1

Sunflower [8] = assay: Test C preemergence
[9] = system: Surinam grass (Brachiaria decumbens); assay: Test C preemergence; details: for Plant response rating (0 to 100), Surinam grass: Rate 250 g/ha, visual evaluation after 12 to 14 days
How it was run: as §1

[10] = system: cocklebur (Xanthium strumarium); assay: Test C preemergence; details: for Plant response rating (0 to 100), Cocklebur: Rate 250 g/ha, visual evaluation after 12 to 14 days
How it was run: as §1

[11] = system: woolly cupgrass (Eriochloa villosa); assay: Test C preemergence; details: for Plant response rating (0 to 100), Cupgrass, Woolly: Rate 250 g/ha, visual evaluation after 12 to 14 days
How it was run: as §1

[12] = system: velvetleaf (Abutilon theophrasti); assay: Test C preemergence; details: for Plant response rating (0 to 100), Velvetleaf: Rate 250 g/ha, visual evaluation after 12 to 14 days
How it was run: as §1

wild oat (Avena fatua) = assay: Test B postemergence; details: 13 to 15 days
How it was run: (§2)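 Preemergence: seeds planted and treated with test chemicals in non-phytotoxic solvent with surfactant; postemergence on plants 2–18 cm (1- to 4-leaf stage). Kept in greenhouse 13–15 days, then visually rated against controls on a 0 (no effect) to 100 (complete control) scale.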

[13] = system: lambsquarters (Chenopodium album); assay: Test B postemergence; details: 13 to 15 days
How it was run: as §2

[14] = system: crabgrass (Digitaria sanguinalis); assay: Test B postemergence; details: 13 to 15 days
How it was run: as §2

[15] = system: cocklebur (Xanthium strumarium); assay: Test B postemergence; details: 13 to 15 days
How it was run: as §2

[16] = Rate 62 g/ha, scale 0 to 100, 0 no effect, 100 complete control
[17] = preemergence, Rate 31 g/ha, scale 0 to 100
[18] = preemergence, Rate 125 g/ha, scale 0 to 100, 0 no effect, 100 complete control
[19] = Rate 125 g/ha, scale 0 to 100, 0 no effect, 100 complete control
[20] = Rate 125 g/ha, scale 0 (no effect) to 100 (complete control)
[21] = Rate 500 g/ha, scale 0 to 100, 0 is no effect, 100 is complete control
[22] = Preemergence, Rate 500 g/ha, scale 0 to 100

O=C1C(n2ccc(C3CCC3)n2)SCN1c1cccc(C(F)(F)F)c1 (stereo not drawn) [Compound 37]
30: Plant response rating, Johnsongrass [5, 16] | Plant response rating, Johnsongrass [5, 18] | Plant response rating, Cocklebur [15, 21]
0: Plant response rating, Soybean (soybean (Glycine max); [16]) | Plant response rating, Soybean (soybean (Glycine max); [17]) | Plant response rating, Pigweed [2, 16] | Plant response rating, Pigweed [2, 17] | Plant response rating, Pigweed [2, 18] | Plant response rating, Nightshade (Nightshade; Rate 31 g/ha, scale 0 to 100) | Plant response rating, Nightshade (Nightshade; [16]) | Plant response rating, Nightshade (Nightshade; [19]) | Plant response rating, Corn (corn (Zea mays); [16]) | Plant response rating, Corn (corn (Zea mays); [17]) | Plant response rating, Ragweed, Common [6, 16] | Plant response rating, Ragweed, Common [6, 17] | Plant response rating, Sunflower (Sunflower [8]; [16]) | Plant response rating, Surinam grass [9, 16] | Plant response rating, Surinam grass [9, 17] | Plant response rating, Surinam grass [9, 18] | Plant response rating, Cocklebur [10, 17] | Plant response rating (0 to 100), Cocklebur ([10]; preemergence) | Plant response rating, Cocklebur [10, 18] | Plant response rating, Cupgrass, Woolly [11, 16] | Plant response rating, Cupgrass, Woolly [11, 17] | Plant response rating, Cupgrass, Woolly [11, 18] | Plant response rating, Velvetleaf [12, 16] | Plant response rating, Velvetleaf [12, 17] | Plant response rating, Wild Oat (wild oat (Avena fatua); [20]) | Plant response rating, Wild Oat (wild oat (Avena fatua); [21]) | Plant response rating, Lambsquarters [13, 20] | Plant response rating, Crabgrass [14, 20]
50: Plant response rating (0 to 100), Soybean (soybean (Glycine max); preemergence) | Plant response rating, Foxtail, Giant [4, 17] | Plant response rating, Kochia (kochia (Kochia scoparia); [16])
60: Plant response rating (0 to 100), Sunflower (Sunflower [1]) | Plant response rating, Foxtail, Giant [4, 16] | Plant response rating (0 to 100), Ragweed, Common ([6]; preemergence) | Plant response rating, Bermudagrass [7, 17]
90: Plant response rating (0 to 100), Johnsongrass ([5]; preemergence) | Plant response rating (0 to 100), Surinam grass ([9]; preemergence) | Plant response rating, Lambsquarters [13, 21]
80: Plant response rating, Bermudagrass [7, 18]
100: Plant response rating (0 to 100), Pigweed ([2]; preemergence) | Plant response rating, Lambsquarters [3, 16] | Plant response rating, Lambsquarters [3, 17] | Plant response rating (0 to 100), Lambsquarters ([3]; preemergence) | Plant response rating, Lambsquarters [3, 18] | Plant response rating (0 to 100), Foxtail, Giant ([4]; preemergence) | Plant response rating (0 to 100), Kochia (kochia (Kochia scoparia); preemergence) | Plant response rating, Kochia (kochia (Kochia scoparia); [18]) | Plant response rating (0 to 100 where 0 is no effect and 100 is complete control), Bermudagrass ([7]; preemergence) | Plant response rating (0 to 100), Cupgrass, Woolly ([11]; preemergence) | Plant response rating, Crabgrass [14, 21]
40: Plant response rating (0 to 100), Corn (corn (Zea mays); preemergence) | Plant response rating, Corn (corn (Zea mays); [18]) | Plant response rating, Kochia (kochia (Kochia scoparia); [17])
70: Plant response rating, Foxtail, Giant [4, 18] | Plant response rating, Bermudagrass [7, 16]
10: Plant response rating, Cocklebur [15, 20]
20: Plant response rating, Johnsongrass [5, 17] | Plant response rating, Ragweed, Common [6, 18] | Plant response rating (0 to 100), Velvetleaf ([12]; preemergence) | Plant response rating, Velvetleaf [12, 18]

O=C1C(n2ccc(C3CCC3)n2)SCN1c1cccc(OC(F)(F)F)c1 (stereo not drawn) [Compound 38]
20: Plant response rating, Ragweed, Common [6, 18] | Plant response rating (0 to 100), Cocklebur ([10]; preemergence) | Plant response rating, Velvetleaf [12, 22] | Plant response rating (0 to 100), Velvetleaf ([12]; preemergence)
50: Plant response rating, Johnsongrass [5, 18]
60: Plant response rating (0 to 100), Sunflower (Sunflower [1]) | Plant response rating, Bermudagrass [7, 16] | Plant response rating, Sunflower (Sunflower [8]; Rate 500 g/ha, scale 0 to 100) | Plant response rating, Cocklebur [10, 22] | Plant response rating, Crabgrass [14, 20]
40: Plant response rating, Johnsongrass [5, 16] | Plant response rating (0 to 100), Ragweed, Common ([6]; preemergence) | Plant response rating, Cocklebur [15, 20]
0: Plant response rating, Soybean (soybean (Glycine max); [22]) | Plant response rating, Soybean (soybean (Glycine max); [16]) | Plant response rating (0 to 100), Soybean (soybean (Glycine max); preemergence) | Plant response rating, Soybean (soybean (Glycine max); [18]) | Plant response rating, Pigweed [2, 16] | Plant response rating (0 to 100), Pigweed ([2]; preemergence) | Plant response rating, Pigweed [2, 18] | Plant response rating, Nightshade (Nightshade; [16]) | Plant response rating, Nightshade (Nightshade; [19]) | Plant response rating, Foxtail, Giant [4, 18] | Plant response rating, Corn (corn (Zea mays); [22]) | Plant response rating, Corn (corn (Zea mays); [16]) | Plant response rating (0 to 100), Corn (corn (Zea mays); preemergence) | Plant response rating, Corn (corn (Zea mays); [18]) | Plant response rating, Ragweed, Common [6, 16] | Plant response rating, Sunflower (Sunflower [8]; [16]) | Plant response rating, Surinam grass [9, 16] | Plant response rating (0 to 100), Surinam grass ([9]; preemergence) | Plant response rating, Surinam grass [9, 18] | Plant response rating, Cocklebur [10, 16] | Plant response rating, Cocklebur [10, 18] | Plant response rating, Cupgrass, Woolly [11, 16] | Plant response rating (0 to 100), Cupgrass, Woolly ([11]; preemergence) | Plant response rating, Cupgrass, Woolly [11, 18] | Plant response rating, Velvetleaf [12, 16] | Plant response rating, Velvetleaf [12, 18] | Plant response rating, Wild Oat (wild oat (Avena fatua); [20]) | Plant response rating, Wild Oat (wild oat (Avena fatua); [21])
80: Plant response rating, Foxtail, Giant [4, 16] | Plant response rating, Lambsquarters [13, 20] | Plant response rating, Cocklebur [15, 21]
30: Plant response rating, Pigweed [2, 22] | Plant response rating, Kochia (kochia (Kochia scoparia); [16])
70: Plant response rating, Kochia (kochia (Kochia scoparia); [18])
90: Plant response rating, Lambsquarters [3, 16] | Plant response rating, Nightshade (Nightshade; Rate 500 g/ha, scale 0 to 100) | Plant response rating, Johnsongrass [5, 22] | Plant response rating (0 to 100), Johnsongrass ([5]; preemergence) | Plant response rating (0 to 100), Kochia (kochia (Kochia scoparia); preemergence) | Plant response rating, Bermudagrass [7, 18] | Plant response rating, Surinam grass [9, 22] | Plant response rating, Cupgrass, Woolly [11, 22] | Plant response rating, Lambsquarters [13, 21]
100: Plant response rating, Lambsquarters [3, 22] | Plant response rating (0 to 100), Lambsquarters ([3]; preemergence) | Plant response rating, Lambsquarters [3, 18] | Plant response rating, Foxtail, Giant [4, 22] | Plant response rating (0 to 100), Foxtail, Giant ([4]; preemergence) | Plant response rating, Kochia (kochia (Kochia scoparia); [22]) | Plant response rating, Ragweed, Common [6, 22] | Plant response rating, Bermudagrass [7, 22] | Plant response rating (0 to 100 where 0 is no effect and 100 is complete control), Bermudagrass ([7]; preemergence) | Plant response rating, Crabgrass [14, 21]
